Tests used:
Assay in all cases: NCI 60-cell line one-dose antiproliferative screen (SRB)
Assay type in all cases: cell-based
[1] = tested on: SF-268; conditions: Homo sapiens, read-out: growth inhibition % (GI%)
Method in brief: (§1)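 Compounds tested at a single 10 µM dose for 48 h at 37 °C after 24 h pre-incubation; cells TCA-fixed and stained with sulforhodamine B, absorbance at 515 nm. Percent growth calculated relative to no-compound control and time-zero cell count, reported as growth inhibition percentage.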

[2] = tested on: MDA-MB-231/ATCC; conditions: Homo sapiens, read-out: growth inhibition % (GI%)
Method in brief: as §1

[3] = tested on: CAKI-1; conditions: Homo sapiens, read-out: growth inhibition % (GI%)
Method in brief: as §1

[4] = tested on: HCT-15; conditions: Homo sapiens, read-out: growth inhibition % (GI%)
Method in brief: as §1

[5] = tested on: IGROV1; conditions: Homo sapiens, IGROV-1, read-out: growth inhibition % (GI%)
Method in brief: as §1

[6] = tested on: OVCAR-5; conditions: Homo sapiens, read-out: growth inhibition % (GI%)
Method in brief: as §1

[7] = tested on: ACHN; conditions: Homo sapiens, read-out: growth inhibition % (GI%)
Method in brief: as §1

[8] = tested on: SW-620; conditions: Homo sapiens, read-out: growth inhibition % (GI%)
Method in brief: as §1

[9] = tested on: NCI-H322M; conditions: Homo sapiens, read-out: growth inhibition % (GI%)
Method in brief: as §1

[10] = tested on: UACC-62; conditions: Homo sapiens, read-out: growth inhibition % (GI%)
Method in brief: as §1

[11] = tested on: T-47D; conditions: Homo sapiens, T47D, read-out: growth inhibition % (GI%)
Method in brief: as §1

[12] = tested on: PC-3; conditions: Homo sapiens, read-out: growth inhibition % (GI%)
Method in brief: as §1

[13] = tested on: U251; conditions: Homo sapiens, U-251, read-out: growth inhibition % (GI%)
Method in brief: as §1

[14] = tested on: RPMI-8226; conditions: Homo sapiens, read-out: growth inhibition % (GI%)
Method in brief: as §1

[15] = tested on: OVCAR-8; conditions: Homo sapiens, read-out: growth inhibition % (GI%)
Method in brief: as §1

[16] = tested on: UO-31; conditions: Homo sapiens, read-out: growth inhibition % (GI%)
Method in brief: as §1

[17] = tested on: HOP-62; conditions: Homo sapiens, read-out: growth inhibition % (GI%)
Method in brief: as §1

[18] = tested on: OVCAR-4; conditions: Homo sapiens, read-out: growth inhibition % (GI%)
Method in brief: as §1

[19] = tested on: LOX IMVI; conditions: Homo sapiens, read-out: growth inhibition % (GI%)
Method in brief: as §1

[20] = tested on: BT-5; conditions: Homo sapiens, read-out: growth inhibition % (GI%)
Method in brief: as §1

[21] = tested on: RXF 393; conditions: Homo sapiens, read-out: growth inhibition % (GI%)
Method in brief: as §1

[22] = tested on: NCI/ADR-RES; conditions: Homo sapiens, read-out: growth inhibition % (GI%)
Method in brief: as §1

[23] = tested on: SNB-75; conditions: Homo sapiens, read-out: growth inhibition % (GI%)
Method in brief: as §1

[24] = tested on: M14; conditions: Homo sapiens, read-out: growth inhibition % (GI%)
Method in brief: as §1

[25] = tested on: MCF7; conditions: Homo sapiens, read-out: growth inhibition % (GI%)
Method in brief: as §1

[26] = tested on: A498; conditions: Homo sapiens, read-out: growth inhibition % (GI%)
Method in brief: as §1

[27] = tested on: 786-0; conditions: Homo sapiens, read-out: growth inhibition % (GI%)
Method in brief: as §1

[28] = tested on: SNB-19; conditions: Homo sapiens, read-out: growth inhibition % (GI%)
Method in brief: as §1

[29] = tested on: SK-MEL-5; conditions: Homo sapiens, read-out: growth inhibition % (GI%)
Method in brief: as §1

[30] = tested on: NCI-H522; conditions: Homo sapiens, read-out: growth inhibition % (GI%)
Method in brief: as §1

[31] = tested on: CCRF-CEM; conditions: Homo sapiens, read-out: growth inhibition % (GI%)
Method in brief: as §1

[32] = tested on: HCT-116; conditions: Homo sapiens, read-out: growth inhibition % (GI%)
Method in brief: as §1

[33] = tested on: NCI-H23; conditions: Homo sapiens, read-out: growth inhibition % (GI%)
Method in brief: as §1

[34] = tested on: NCI-H460; conditions: Homo sapiens, read-out: growth inhibition % (GI%)
Method in brief: as §1

Row | SMILES | inhibition at 10 µM [1] | inhibition at 10 µM [2] | inhibition at 10 µM [3] | inhibition at 10 µM [4] | inhibition at 10 µM [5] | inhibition at 10 µM [6] | inhibition at 10 µM [7] | inhibition at 10 µM [8] | inhibition at 10 µM [9] | inhibition at 10 µM [10] | inhibition at 10 µM [11] | inhibition at 10 µM [12] | inhibition at 10 µM [13] | inhibition at 10 µM [14] | inhibition at 10 µM [15] | inhibition at 10 µM [16] | inhibition at 10 µM [17] | inhibition at 10 µM [19] | inhibition at 10 µM [20] | inhibition at 10 µM [21] | also measured
1 | Cc1ccc(C(=O)c2ccc(CC(=O)NN3C(=O)C=CC3=O)n2C)cc1 [Compound 7b, N-(2,5-Dioxo-2,5-dihydro-1H-pyrrol-1-yl)-2–(1-methyl-5–(4-methylbenzoyl)-1H-pyrrol-2-yl)acetamide] | 12.3% | 11.6% | 20.3% | < 10% | 22.2% | < 10% | 11.1% | < 10% | < 10% | < 10% | 25.5% | 10.7% | < 10% | < 10% | < 10% | 35.3% | 10.4% | 11.1% | < 10% | 13% | inhibition at 10 µM [18]: < 10%; inhibition at 10 µM [22]: 12.3%; inhibition at 10 µM [23]: 16%; inhibition at 10 µM [24]: < 10%; inhibition at 10 µM [25]: 13.2%; inhibition at 10 µM [26]: 10.7%; inhibition at 10 µM [27]: < 10%; inhibition at 10 µM [28]: 11%; inhibition at 10 µM [29]: < 10%; inhibition at 10 µM [30]: 15.9%; inhibition at 10 µM [31]: < 10%; inhibition at 10 µM [32]: 14%; inhibition at 10 µM [33]: 23.9%
2 | Cc1ccc(C(=O)c2ccc(CC(=O)NN=Cc3ccccc3O)n2C)cc1 [Compound 5a, N′-(2-Hydroxybenzylidene)-2–(1-methyl-5–(4-methylbenzoyl)-1H-pyrrol-2-yl)aceto hydrazide] | 29.1% | 17.4% | 35.5% | 56.5% | 19.1% | < 10% | 46.8% | 10.4% | 21.1% | 12.8% | 24.4% | 13.2% | 23.8% | 18.6% | 21% | 59.3% | 24% | 42% | 14.9% | 10.4% | inhibition at 10 µM [18]: 39.8%; inhibition at 10 µM [22]: 30.6%; inhibition at 10 µM [23]: 40.4%; inhibition at 10 µM [24]: 17.1%; inhibition at 10 µM [25]: 18.5%; inhibition at 10 µM [26]: 18%; inhibition at 10 µM [27]: < 10%; inhibition at 10 µM [28]: 20.7%; inhibition at 10 µM [29]: 12.6%; inhibition at 10 µM [30]: 24.9%; inhibition at 10 µM [34]: 23.4%; inhibition at 10 µM [31]: 45.9%; inhibition at 10 µM [32]: < 10%; inhibition at 10 µM [33]: 17.1%
3 | Cc1ccc(C(=O)c2ccc(CC(=O)NN=Cc3cccc(O)c3O)n2C)cc1 [Compound 5b, N′-(2,3-Dihydroxybenzylidene)-2–(1-methyl-5–(4-methylbenzoyl)-1H-pyrrol-2-yl) acetohydrazide] | 62.8% | 54.7% | 62.7% | 84.3% | 48.8% | 27.4% | 86.5% | 65.8% | 45.6% | 60.9% | 74.1% | 40.8% | 74% | 64.9% | 61.4% | 85.8% | 50.1% | 82.7% | 54.3% | 70.3% | inhibition at 10 µM [18]: 70.9%; inhibition at 10 µM [22]: 80.9%; inhibition at 10 µM [23]: 74.6%; inhibition at 10 µM [24]: 71.5%; inhibition at 10 µM [25]: 84%; inhibition at 10 µM [26]: < 10%; inhibition at 10 µM [27]: 23.6%; inhibition at 10 µM [28]: 54%; inhibition at 10 µM [29]: 65.4%; inhibition at 10 µM [30]: 51.2%; inhibition at 10 µM [34]: 91.4%; inhibition at 10 µM [31]: 86.9%; inhibition at 10 µM [32]: 69.2%; inhibition at 10 µM [33]: 54.6%
4 | Cc1ccc(C(=O)c2ccc(CC(=O)NNC(=O)Nc3ccc(Cl)c(C(F)(F)F)c3)n2C)cc1 [Compound 8c, N-(4-Chloro-3-(trifluoromethyl)phenyl)-2–(2-(1-methyl-5–(4-methylbenzoyl)-1H-pyrrol-2-yl)acetyl)hydrazinecarboxamide] | 26.3% | 16.7% | 35.2% | 10.9% | 36.1% | 10.9% | < 10% | 10.6% | 14.4% | 19.7% | 13.8% | 22.4% | < 10% | 11.3% | 10.9% | 38.4% | 20% | 10.5% | 11.4% | < 10% | inhibition at 10 µM [22]: < 10%; inhibition at 10 µM [23]: 35.7%; inhibition at 10 µM [24]: 11.7%; inhibition at 10 µM [25]: 21.7%; inhibition at 10 µM [26]: 18.3%; inhibition at 10 µM [28]: 25.8%; inhibition at 10 µM [29]: 22.3%; inhibition at 10 µM [30]: 21.1%; inhibition at 10 µM [34]: 16.8%; inhibition at 10 µM [31]: < 10%; inhibition at 10 µM [32]: < 10%; inhibition at 10 µM [33]: < 10%

Reference: PMC8079033, “Design, synthesis, anticancer evaluation, and molecular modelling studies of novel tolmetin derivatives as potential VEGFR-2 inhibitors and apoptosis inducers” (Journal of Enzyme Inhibition and Medicinal Chemistry, 2021)
